Measured values reported in article PMC5572697, “A first-in-human study of the novel HIV-fusion inhibitor C34-PEG4-Chol” (Scientific Reports, 2017).
“Also recorded” adds a separate entry of the source. Read-outs that look alike come from different tables or passages of the source.

How the values were obtained:
Type in all cases: in vivo
[1] = Repeat-dose toxicity study in mice; conditions: mouse, in vivo, sc, subcutaneous, daily for 14 days, 7-day recovery, read-out: No-observed-adverse-effect-level (NOAEL)
Procedure: (§1) Pre-clinical toxicology studies were conducted in 2 species (rodent/mice and non-rodent/dogs). Multiple high doses of C34-PEG4-Chol, up to 12 mg/kg or 10 x the maximum proposed human dose, were administered daily in mice and twice weekly (the intended frequency in humans) in dogs for 14 days, with a 7-day recovery period for both species. […] Toxicology results were analysed independently by the Medicines and Healthcare Regulatory Authority (MHRA), UK before a decision was made to proceed with trial in humans.
(§2) Repeat-dose toxicity studies were conducted in mice (n = 20 at 6 mg/kg/day, n = 20 at 12 mg/kg/day) and dogs (n = 6 at 6 mg/kg/day, n = 6 at 12 mg/kg/day). The subcutaneous route of administration was selected for both species. The highest dose of 12 mg/kg/day was based on the maximal achievable dose with the formulation, and corresponded to 10x the maximum proposed human dose (80 mg, 1.15 mg/kg). No premature decedents occurred in either species. Following observation, animals were euthanised.

mice = test: Repeat-dose toxicity study in mice; conditions: subcutaneous
Procedure: as §1, §2

dogs = test: Repeat-dose toxicity study in dogs; conditions: subcutaneous
Procedure: as §1, §2

[2] = Human plasma pharmacokinetics after a single subcutaneous dose; design: Area under plasma-concentration-time-curve: unit not given here; conditions: for half-life / Cmax / Tmax / Vd: sc; for Cmax: LC-MS/MS, non-compartmental, read-out: Maximum observed concentration; for Tmax: read-out: Time to maximum observed concentration; for Vd: read-out: Volume of distribution; for Time-to-MEC (time plasma concentrations remained above the minimum effective concentration): assay cut-off 62.5 ng/mL used as surrogate
Procedure: Intensive pharmacokinetic sampling was performed over the first 24 hours subsequent to dosing with samples collected pre-dose, 0.5 h, 1 h, 2 h, 4 h, 6 h, 8 h, 12 h, 24 h. Thereafter pharmacokinetic sampling was undertaken on days 2, 3, 4, 7, 10, 14, 21 and 28. Plasma samples (100 µL) were extracted in 300 µL of acetonitrile containing 1% formic acid; vortexed and centrifuged at 4000 rpm for 10 minutes. The supernatant was transferred into autosampler vials, and 25 μL injected onto the LC-MS/MS. Quantitative analysis of C34-PEG4-Chol was performed by LC-MS/MS using a Thermo Quantum Access triple quadrupole mass spectrometer, interfaced with a heated electrospray ionisation (H-ESI) source (Thermo Fisher Scientific, Hemel Hempstead, UK). The HPLC system included a variable loop Accela autosampler and an Accela pump (ThermoScientific, Hemel Hempstead, UK). Chromatographic separation was achieved using a reverse-phase XBridge Peptide BEH C18 column (3.5 µm; 50 mm × 2.1 mm) (Waters Corporation, Milford, US) interfaced with a 2 µm C18 Quest column saver (Thermo Scientific, Hemel Hempstead, UK). The gradient mobile phase, consisting of a solvent A (0.1% formic acid in Water) and solvent B (0.1% formic acid in acetonitrile), was delivered at a flow rate of […]. Detection of C34-PEG4-Chol was performed in the pseudo Selected Reaction Monitoring mode, monitoring a triple charged molecular ion [M + 3 H]3 + at m/z 1756.8. The internal standard (quinoxaline), was monitored at m/z 313.1 → 246.1. Peak area ratios of compound to internal standard were utilized to construct a calibration curve with a weighting of 1/x2. Data acquisition and processing was performed using LCQuan software (Version 2.7, Thermo Scientific, Hemel Hempstead, UK). The assay calibration range was between 62.5–10,000 ng/mL; inter and intra-assay accuracy and precision at the assay limit of quantification (LLQ) fell within the designated ±20% of the nominal value, and were within ±15% for all QC levels.
Pharmacokinetic parameters were derived via non-compartmental modeling. The area-under-the-concentration-time-curve (AUC) was calculated following a single dose, assuming linear decrease over time, by linear trapezoidal method. The maximum concentration (Cmax) observed at each dose and the time-to-Cmax (Tmax) were calculated. The time to reach minimum effective concentration was assessed in order to determine the frequency of future dosing regimens. […] Given our assay cut-off was 62.5 ng/mL, our assay cut off was used as a surrogate for the IC90.

HIV-positive men = test: First-in-human safety and injection site reaction (ISR) grading; conditions: for ISR grade: one participant
Procedure: Dosing was commenced at the lowest dose of 10 mg in a volume of 1 mL. Randomisation was undertaken using the InForm™ Integrated Trial Management system and was on a 1:1 basis, with no predefined stratifications. All clinical study staff were blinded. Clinical research pharmacists who were not part of the clinical research team, were not blinded in order to reconstitute study products. These members of the research pharmacy team had no involvement in the clinical care of participants during study procedures.
At all study time-points, participants were reviewed for ISRs, a symptom-directed physical examination was performed and blood samples were collected for full blood picture, electrolytes, liver enzymes, amylase and glucose. An electrocardiogram was performed pre-dose and 4 and 12 hours after dosing. A decision to proceed with dose escalation was made only after all four participants in each dose cohort had been observed for a minimum of 7 days for safety assessments. All safety data were reviewed by an independent data monitoring committee (IDMC).
Supplementary Information 1:
Table S1: List of injection site reactions (ISR) grading

[3] = human, in vivo, 10 mg, participant 1, single SC 10 mg
[4] = human, in vivo, 10 mg, participant 3, single SC 10 mg
[5] = human, in vivo, 20 mg, participant 5, single SC 20 mg

Structure (SMILES): CC[C@H](C)[C@H](NC(=O)[C@H](CC(C)C)NC(=O)[C@H](CO)NC(=O)[C@H](Cc1c[nH]cn1)NC(=O)[C@@H](NC(=O)[C@H](CC(C)C)NC(=O)[C@H](CO)NC(=O)[C@@H](NC(=O)[C@H](Cc1ccc(O)cc1)NC(=O)[C@H](CC(N)=O)NC(=O)[C@H](CC(N)=O)NC(=O)[C@@H](NC(=O)[C@H](CCC(=O)O)NC(=O)[C@H](CCCNC(=N)N)NC(=O)[C@H](CC(=O)O)NC(=O)[C@H](Cc1c[nH]c2ccccc12)NC(=O)[C@H](CCC(=O)O)NC(=O)[C@H](CCSC)NC(=O)[C@H](Cc1c[nH]c2ccccc12)NC(C)=O)[C@@H](C)CC)[C@@H](C)O)[C@@H](C)CC)C(=O)N[C@@H](CCC(=O)O)C(=O)N[C@@H](CCC(=O)O)C(=O)N[C@@H](CO)C(=O)N[C@@H](CCC(N)=O)C(=O)N[C@@H](CC(N)=O)C(=O)N[C@@H](CCC(N)=O)C(=O)N[C@@H](CCC(N)=O)C(=O)N[C@@H](CCC(=O)O)C(=O)N[C@@H](CCCCN)C(=O)N[C@@H](CC(N)=O)C(=O)N[C@@H](CCC(=O)O)C(=O)N[C@@H](CCC(N)=O)C(=O)N[C@@H](CCC(=O)O)C(=O)N[C@@H](CC(C)C)C(=O)N[C@@H](CC(C)C)C(=O)NCC(=O)N[C@@H](CO)C(=O)NCC(=O)N[C@@H](CSCC(=O)NCCOCCOCCOCCOCCC(=O)O[C@H]1CC[C@@]2(C)C(=CC[C@H]3[C@@H]4CC[C@H]([C@H](C)CCCC(C)C)[C@@]4(C)CC[C@@H]32)C1)C(N)=O [C34-PEG4-Chol]
- NOAEL at 336 h [1]: 12 mg/kg/day
- Injection site reactions (ISRs) (mice): had not been observed
- Tolerability (mice; up to 12 mg/kg/day for 14 days): well tolerated
- Tolerability (dogs; 6 and 12 mg/kg, 14 days): well tolerated
- Injection site findings (dogs; also seen in controls, greater severity with the peptide): some subcutaneous inflammation at the injection sites; also recorded: mild and reversible
- half-life [2, 3]: 48 h
- Cmax ([2]; human, in vivo, 10 mg, participant 1, single SC 10 mg, plasma): 418 ng/mL
- Tmax [2, 3]: 2 h
- Vd [2, 3]: 24 L
- half-life [2, 4]: 54 h
- Cmax ([2]; human, in vivo, 10 mg, participant 3, single SC 10 mg, plasma): 278 ng/mL
- Tmax [2, 4]: 6 h
- Vd [2, 4]: 39.5 L
- half-life [2, 5]: 46 h
- Cmax ([2]; human, in vivo, 20 mg, participant 5, single SC 20 mg, plasma): 1030 ng/mL
- Tmax [2, 5]: 2 h
- Vd [2, 5]: 19.5 L
- AUC ([2]; human, in vivo, participant 3, single SC 10 mg, linear trapezoidal, read-out: Area under plasma-concentration-time-curve): 200 ng·h/mL
- level at 72 h ([2]; human, plasma, two subjects, single SC 10 mg, above the LLOQ, read-out: Plasma concentration at 72 hours): > 62 ng/mL
- Area under plasma-concentration-time-curve ([2]; participant 5, single SC 20 mg, linear trapezoidal): 506
- Time-to-MEC (time plasma concentrations remained above the minimum effective concentration) ([2]; single SC 10 mg): 72 h
- Time-to-MEC (time plasma concentrations remained above the minimum effective concentration) ([2]; single SC 20 mg): 96 h
- Half-life, range over the three participants ([2]; single SC 10, 10 and 20 mg): 46 to 54 h
- Individuals with grade 3 ISR among those administered active drug (HIV-positive men; 3 men received active drug (10 mg, 10 mg, 20 mg), subcutaneous): 2 out of 3
- ISR grade (HIV-positive men; single subcutaneous 10 mg dose): grade 3
- ISR grade (HIV-positive men; single subcutaneous 20 mg dose): grade 3
- Systemic clinical or laboratory toxicities (HIV-positive men; single subcutaneous 10 or 20 mg, 84 days follow up): No systemic toxicities were observed; also recorded: No systemic clinical toxicities or laboratory defined toxicities were observed
